The nature of series [1]: log P by HPLC on reversed phase columns (EEC directive 79/831 Annex V.A8), method [b]. It counts as physicochemical. Here is the method:
Calibration was done with not branched alkan2-ones (with 3 to 16 carbon atoms) with known log P-values (measurement of log P values using retention times with linear interpolation between successive alkanones). lambda-maX-values were determined using UV-spectra from 200 nm to 400 nm and the peak values of the chromatographic signals.

A further series relates to Sphaerotheca fuliginea. The experiment in a line: Sphaerotheca test (cucumber) / preventive. It counts as in vivo. The note with it: 500 ppm of active ingredient, evaluated 7 days after inoculation. Here is the method:
Sphaerotheca Test (Cucumber)/Preventive
(§1) To produce a suitable preparation of active compound, 1 part by weight of active compound is mixed with the stated amounts of solvent and emulsifier, and the concentrate is diluted with water to the desired concentration.
To test for preventive activity, young plants are sprayed with the preparation of active compound at the stated rate of application. One day after this treatment, the plants are inoculated with an aqueous spore suspension of Sphaerotheca fuliginea. Then the plants are placed in a greenhouse at approximately 23° C. and a relative atmospheric humidity of approximately 70%.
(§2) The test is evaluated 7 days after the inoculation. 0% means an efficacy which corresponds to that of the untreated control, while an efficacy of 100% means that no disease is observed.

Another series deals with Alternaria solani. The experiment in a line: Alternaria test (tomato) / preventive. It counts as in vivo. The following applies: 500 ppm of active ingredient, evaluated 7 days after inoculation. Here is the method:
Alternaria Test (Tomato)/Preventive
as §1
To test for preventive activity, young plants are sprayed with the preparation of active compound at the stated rate of application. One day after this treatment, the plants are inoculated with an aqueous spore suspension of Alternaria solani. The plants remain for one day in an incubation cabinet at approximately 22° C. and a relative atmospheric humidity of 100%. Then the plants are placed in an incubation cabinet at approximately 20° C. and a relative atmospheric humidity of 96%.
The test is evaluated 7 days after the inoculation. 0% means an efficacy which corresponds to that of the untreated control while an efficacy of 100% means that no disease is observed.

In the next series the test system is Pyrenophora teres. The experiment in a line: Pyrenophora test (barley) / preventive. It counts as in vivo. The note with it: 500 ppm of active ingredient, evaluated 7-9 days after inoculation. The procedure:
Pyrenophora Test (Barley)/Preventive
as §1
To test for preventive activity, young plants are sprayed with the preparation of active compound at the stated rate of application. One day after this treatment, the plants are inoculated with an aqueous spore suspension of Pyrenophora teres. The plants remain for 48 hours in an incubation cabinet at 22° C. and a relative atmospheric humidity of 100%. Then the plants are placed in a greenhouse at a temperature of approximately 20° C. and a relative atmospheric humidity of approximately 80%.
(§3) The test is evaluated 7-9 days after the inoculation. 0% means an efficacy which corresponds to that of the untreated control while an efficacy of 100% means that no disease is observed.

In another series the test system is Puccinia recondita. Briefly: Puccinia test (wheat) / preventive. It counts as in vivo. The following applies: 500 ppm of active ingredient, evaluated 7-9 days after inoculation. Here is the method:
Puccinia Test (Wheat)/Preventive
as §1
To test for preventive activity, young plants are sprayed with the preparation of active compound at the stated rate of application. One day after this treatment, the plants are inoculated with an aqueous spore suspension of Puccinia recondita. The plants remain for 48 hours in an incubation cabinet at 22° C. and a relative atmospheric humidity of 100%. Then the plants are placed in a greenhouse at a temperature of approximately 20° C. and a relative atmospheric humidity of approximately 80%.
as §3

In the next series the test system is Venturia inaequalis. The experiment in a line: Venturia test (apples) / preventive. It counts as in vivo. The note with it: 100 ppm of active ingredient, evaluated 10 days after inoculation. Here is the method:
Venturia Test (Apples)/Preventive
as §1
To test for preventive activity, young plants are sprayed with the preparation of active compound at the stated rate of application. After the spray coating has dried on, the plants are inoculated with an aqueous conidia suspension of the causal agent of apple scab (Venturia inaequalis) and then remain for 1 day in an incubation cabinet at approximately 20° C. and a relative atmospheric humidity of 100%.
The plants are then placed in a greenhouse at approximately 21° C. and a relative atmospheric humidity of approximately 90%.
The test is evaluated 10 days after the inoculation. 0% means an efficacy which corresponds to that of the untreated control, while an efficacy of 100% means that no disease is observed.

Series [2] relates to Blumeria graminis f.sp. hordei. The experiment in a line: Blumeria test (barley) / preventive. The note with it: 500 ppm of active ingredient, evaluated 7 days after inoculation. It counts as in vivo. Here is the method:
Blumeria Test (Barley)/Preventive
(§4) To produce a suitable preparation of active compound, 1 part by weight of active compound or active compound combination is mixed with the stated amounts of solvent and emulsifier, and the concentrate is diluted with water to the desired concentration.
(§5) To test for preventive activity, young plants are sprayed with the preparation of active compound or active compound combination at the stated rate of application.
After the spray coating has been dried, the plants are dusted with spores of Blumeria graminis f.sp. hordei.
The plants are placed in the greenhouse at a temperature of approximately 18° C. and a relative atmospheric humidity of approximately 80% to promote the development of mildew pustules.
as §2

In the next series the test system is Septoria tritici. The experiment in a line: Septoria tritici test (wheat) / preventive. It counts as in vivo. The note with it: 500 ppm of active ingredient, evaluated 21 days after inoculation. The procedure:
Septoria Tritici-Test (Wheat)/Preventive
as §4, §5
After the spray coating has been dried, the plants are sprayed with a spore suspension of Septoria tritici. The plants remain for 48 hours in an incubation cabinet at approximately 20° C. and a relative atmospheric humidity of approximately 100% and afterwards for 60 hours at approximately 15° C. in a translucent incubation cabinet at a relative atmospheric humidity of approximately 100%.
The plants are placed in the greenhouse at a temperature of approximately 15° C. and a relative atmospheric humidity of approximately 80%.
The test is evaluated 21 days after the inoculation. 0% means an efficacy which corresponds to that of the untreated control, while an efficacy of 100% means that no disease is observed.

A word on the chromatographic logP: it is lipophilicity estimated from chromatographic retention. Low readings indicate lower lipophilicity, high ones higher lipophilicity. Turning to `CC(C)C1C2CCC1C1C(NC(=O)c3c(C(F)F)nn(C)c3F)CCCC21` (stereo not drawn) [Example 1, 3-(difluoromethyl)-5-fluoro-N-(9-isopropyldecahydro-1,4-methanonaphthalen-5-yl)-1-methyl-1H-pyrazole-4-carboxamide], the “LogP[b]” value in series [1] (HPLC, pH 2.7, 0.1% formic acid in water / acetonitrile gradient) is “LogP^[b] = 4.87”. The same molecule registered a chromatographic logP in series [1] (reversed phase HPLC columns, pH 2.7, acid) of 4.87. The Eff. % in the series with Sphaerotheca fuliginea is listed as 100%; with Alternaria solani, 95%; in the series with Pyrenophora teres, 100%; with Puccinia recondita it was 95%; with Venturia inaequalis it was 100%; in series [2], 100%. The Eff. % with Septoria tritici was found to be 90%.

The values above are taken from patent publication US20130296383A1, “DECAHYDRO-1,4-METHANONAPHTHALEN CARBOXAMIDES” (BAYER INTELLECTUAL PROPERTY GMBH, priority 2010, published 2013).
